Source: patent US20070167526A1, “Topical mecamylamine formulations for ocular administration and uses thereof” (priority 2005, published 2007)
Read-outs that look alike come from different tables or passages of the source.

Legend:
[1] = Distribution of mecamylamine into ocular tissue of rabbits following intravenous administration (Example 9); type: in vivo, New Zealand white rabbit; conditions: rabbit; for concentration at 1 h / concentration at 2 h / concentration at 4 h / concentration at 6 h / concentration at 0 h / concentration at 0.5 h: male, iv; for concentration at 1 h / concentration at 2 h / concentration at 4 h / concentration at 6 h / concentration at 0 h / concentration at 0.5 h / Concentration of mecamylamine in the retina/choroid, Mean: 15 mg/kg; for Concentration of mecamylamine in the retina/choroid, Mean: hour 6, listed as MEC
Experimental: Mecamylamine was administered intravenously to male New Zealand white rabbits (approximately 2.5-3 kg (Kralek Frams, Turlock, Calif.)) at a dose of 15 mg/kg (dissolved in sterile 0.9% NaCl for injection) over either over 60 minutes or 6 hours. Drug concentrations were measured as described previously at different time points in the plasma, the vitreous and at 6 hours in the retina-choroid tissue. For both groups, the vitreous(>0.1 mL) was withdrawn at 8 time points, with each animal being sampled no more than twice in total: pre-dose, 5 minutes, 15 minutes, 30 minutes, 1, 2, 4, and 6 hours. At all time points, only two vitreous samples were collected in order to minimize pain and damage to rabbit eyes, in compliance with IACUC guidelines. Plasma samples were also collected at the same 8 time points: pre-dose, 5 minutes, 15 minutes, 30 minutes, 1, 2, 4, and 6 hours, with duplicate samples collected at each time point. At 6 hours, the animals were sacrificed and the vitreous and retina-choroid tissue were collected from all animals. Clinical observations were recorded periodically throughout the study. Biological samples for this study were analyzed using an LC/MS/MS method (see Example 6) with a lower limit of quantitation of 0.5 ng/mL.

[2] = in vivo; conditions: rabbit
Experimental: As used herein, the term “topically administered to a rabbit eye,” and cognates thereof, refers to the administration of a particular mecamylamine formulation, including formulations of pharmaceutically acceptable salts of mecamylamine, by applying 100 μL of the mecamylamine formulation to the cornea of each eye (2 drops of 50 μL each), wherein at the time of application the bottom eyelid is separated from the surface of the eye to make a pocket to ensure the entire dose is retained in contact with the eye. When the concentration of mecamylamine in plasma and in the retinal/choroidal tissue is to be measured in connection with the calculation of the ratio of the mecamylamine concentration in the retina/choroid versus the concentration of mecamylamine in plasma, the concentration of each is determined 1 hour after application of the formulation. The amount of mecamylamine present in plasma and the retina/choroid is determined by LC/MS/MS using internal standards of dextromethorphan and diphenhydramine and a standard of known concentration of mecamylamine. An exemplary method of administration of the topical formulation of mecamylamine is provided in Example 5. An exemplary LC/MS/MS method for determining the ratios described herein is given in detail in Example 6. When the mean maximum concentration of mecamylamine in plasma is to be determined, the concentration is again determined as described above and in Example 6. The term “mean maximum concentration of mecamylamine,” and its cognates, as used herein refers to the mean maximum concentration of mecamylamine measured in plasma when monitored over a 6 hour time period after administration of the formulation. When the mean total concentration of mecamylamine in plasma is to be determined, the concentration is again determined as described above and in Example 6. The term “total concentration of mecamylamine in plasma measured as the area under the curve,” (AUC) and cognates thereof, refers to summation of the areas under plot of the drug plasma versus time using a simple trapezoidal method with drug plasma time points taken to include 1, 3 and 6 hours after topical administration. Determination of AUC for corneal tissue, retinal/choroid tissue and aqueous humor is determined similarly. When the concentration of mecamylamine in plasma and in the corneal tissue is to be measured in connection with the calculation of the ratio of the mecamylamine concentration in the cornea (or aqueous humor) versus the concentration of mecamylamine in plasma, the concentration of each is determined 1 hour after application of 50 μl of the formulation. The amount of mecamylamine present in plasma and the cornea (or aqueous humor) is determined by LC/MS/MS using internal standards of dextromethorphan and diphenhydramine and a standard of known concentration of mecamylamine. An exemplary method of administration of the topical formulation of mecamylamine is provided in Example 5. An exemplary LC/MS/MS method for determining the ratios described herein is given in detail in Example 6.
A single dose of a polymer-free solution, gellan gum formulation and hypromellose formulation containing 3% mecamylamine hydrochloride, was instilled in the eyes of rabbits (Dutch-belted male rabbits (Convance, Denver, Pa.) minimum age 2 months and with weights of 1.6 to 1.8 kg). Two animals were euthanized 30 minutes, 1 hour or 3 hours after dosing.
Sample of blood and ocular tissue (obtained as described in previous examples) were analyzed for mecamylamine concentration using an LC MS/MS method up to 3 hours after dosing.
The area-under-the-curve (AUC) was calculated using a trapezoidal rule on a population pharmacokinetic basis (see Table 9).

CNC1(C)C2CCC(C2)C1(C)C (stereo not shown) [mecamylamine, N-2,3,3-tetramethylbicyclo(2.2.1)heptan-2-amine]
concentration at 1 h ([1]; New Zealand White, plasma, 15 mg/kg i.v. 1 hr infusion, hour 1, read-out: Concentration of mecamylamine in the plasma, Mean): 1820 ng/mL
concentration at 2 h ([1]; New Zealand White, plasma, 15 mg/kg i.v. 1 hr infusion, hour 2, read-out: Concentration of mecamylamine in the plasma, Mean): 455 ng/mL
concentration at 4 h ([1]; New Zealand White, plasma, 15 mg/kg i.v. 1 hr infusion, hour 4, read-out: Concentration of mecamylamine in the plasma, Mean): 227 ng/mL
concentration at 6 h ([1]; New Zealand White, plasma, 15 mg/kg i.v. 1 hr infusion, hour 6, read-out: Concentration of mecamylamine in the plasma, Mean): 102 ng/mL
concentration at 1 h ([1]; New Zealand White, plasma, 15 mg/kg i.v. 6 hr infusion, hour 1, read-out: Concentration of mecamylamine in the plasma, Mean): 470 ng/mL
concentration at 2 h ([1]; New Zealand White, plasma, 15 mg/kg i.v. 6 hr infusion, hour 2, read-out: Concentration of mecamylamine in the plasma, Mean): 572 ng/mL
concentration at 4 h ([1]; New Zealand White, plasma, 15 mg/kg i.v. 6 hr infusion, hour 4, read-out: Concentration of mecamylamine in the plasma, Mean): 717 ng/mL
concentration at 6 h ([1]; New Zealand White, plasma, 15 mg/kg i.v. 6 hr infusion, hour 6, read-out: Concentration of mecamylamine in the plasma, Mean): 313 ng/mL
concentration at 6 h ([1]; New Zealand White, retina/choroid, 15 mg/kg i.v. 1 hr infusion, hour 6, read-out: Concentration of mecamylamine in the retina/choroid, Mean): 261 ng/mL
concentration at 6 h ([1]; New Zealand White, retina/choroid, 15 mg/kg i.v. 6 hr infusion, hour 6, read-out: Concentration of mecamylamine in the retina/choroid, Mean): 1530 ng/mL
concentration at 0 h ([1]; New Zealand white, plasma, 15 mg/kg i.v. 1 hr infusion, hour 0, read-out: Concentration of mecamylamine in the plasma, Mean): 48.7 ng/mL
concentration at 0.5 h ([1]; New Zealand white, plasma, 15 mg/kg i.v. 1 hr infusion, hour 0.5, read-out: Concentration of mecamylamine in the plasma, Mean): 5330 ng/mL
concentration at 0 h ([1]; New Zealand white, plasma, 15 mg/kg i.v. 6 hr infusion, hour 0, read-out: Concentration of mecamylamine in the plasma, Mean): 0 ng/mL
concentration at 0.5 h ([1]; New Zealand white, plasma, 15 mg/kg i.v. 6 hr infusion, hour 0.5, read-out: Concentration of mecamylamine in the plasma, Mean): 350 ng/mL
concentration at 0 h ([1]; New Zealand white, vitreous humor, 15 mg/kg i.v. 1 hr infusion, hour 0, read-out: Concentration of mecamylamine in the vitreous humor, Mean): 43 ng/mL
concentration at 0.5 h ([1]; New Zealand white, vitreous humor, 15 mg/kg i.v. 1 hr infusion, hour 0.5, read-out: Concentration of mecamylamine in the vitreous humor, Mean): 717 ng/mL
concentration at 1 h ([1]; New Zealand white, vitreous humor, 15 mg/kg i.v. 1 hr infusion, hour 1, read-out: Concentration of mecamylamine in the vitreous humor, Mean): 1110 ng/mL
concentration at 2 h ([1]; New Zealand white, vitreous humor, 15 mg/kg i.v. 1 hr infusion, hour 2, read-out: Concentration of mecamylamine in the vitreous humor, Mean): 900 ng/mL
concentration at 4 h ([1]; New Zealand white, vitreous humor, 15 mg/kg i.v. 1 hr infusion, hour 4, read-out: Concentration of mecamylamine in the vitreous humor, Mean): 430 ng/mL
concentration at 6 h ([1]; New Zealand white, vitreous humor, 15 mg/kg i.v. 1 hr infusion, hour 6, read-out: Concentration of mecamylamine in the vitreous humor, Mean): 174 ng/mL
concentration at 0 h ([1]; New Zealand white, vitreous humor, 15 mg/kg i.v. 6 hr infusion, hour 0, read-out: Concentration of mecamylamine in the vitreous humor, Mean): 5.6 ng/mL
concentration at 0.5 h ([1]; New Zealand white, vitreous humor, 15 mg/kg i.v. 6 hr infusion, hour 0.5, read-out: Concentration of mecamylamine in the vitreous humor, Mean): 59.9 ng/mL
concentration at 1 h ([1]; New Zealand white, vitreous humor, 15 mg/kg i.v. 6 hr infusion, hour 1, read-out: Concentration of mecamylamine in the vitreous humor, Mean): 138 ng/mL
concentration at 2 h ([1]; New Zealand white, vitreous humor, 15 mg/kg i.v. 6 hr infusion, hour 2, read-out: Concentration of mecamylamine in the vitreous humor, Mean): 223 ng/mL
concentration at 4 h ([1]; New Zealand white, vitreous humor, 15 mg/kg i.v. 6 hr infusion, hour 4, read-out: Concentration of mecamylamine in the vitreous humor, Mean): 408 ng/mL
concentration at 6 h ([1]; New Zealand white, vitreous humor, 15 mg/kg i.v. 6 hr infusion, hour 6, read-out: Concentration of mecamylamine in the vitreous humor, Mean): 458 ng/mL
Concentration of mecamylamine in the retina/choroid, Mean ([1]; 15 mg/kg i.v. 1 hr infusion): 260.8 ng/mL
Concentration of mecamylamine in the retina/choroid, Mean ([1]; 15 mg/kg i.v. 6 hr infusion): 1534.3 ng/mL
peak mean plasma concentration ([1]; 15 mg/kg i.v. over longer period (6 hours)): 717 ng/mL
time of peak plasma levels ([1]; 15 mg/kg i.v. over shorter period): ≤ 0.5 h
peak mean plasma concentration ([1]; 15 mg/kg i.v. over shorter period (60 minutes)): 5,331 ng/mL
highest mean level in the vitreous ([1]; longer infusion period, seen at 6 hours): 458 ng/mL
highest mean level in the vitreous ([1]; shorter infusion period, seen at 1 hour): 1110 ng/mL
Kp at 1 h ([2]; male, Dutch-belted, in vivo): ≥ 1000
ratio of the concentration of mecamylamine in the aqueous humor versus plasma ([2]; male, Dutch-belted, in vivo, 1 h): at least 50:1
AUC ([2]; male, Dutch-belted, in vivo, topical or ocular): < 85 ng·h/mL
safety issues during the study ([2]; single ocular dose): No safety issues arose
